Tests used:
[1] = system: human liver microsomal cytochrome P450 isoenzymes; test: Inhibition of human liver microsomal cytochrome P450 isoenzymes, overall conclusion; type: in vitro ADME; conditions: human liver microsomes
Experimental: (§1) Experimental Example 4 Inhibition Effect on the Activity of Human Liver Microsomal Cytochrome P450 Isoezymes (CYP1A2, CYP2C9, CYP2C19, CYP2D6 and CYP3A4)
(§2) A total of 5 specific probe substrates for CYP's five isozymes, Phenacetin (CYP1A2), Diclofenac (CYP2C9), […] (S)-Mephenytoin, CYP2C19), Dextromethorphan (CYP2D6) and Midazolam (CYP3A4) were incubated with human liver microsomes and test compounds, respectively, and reduced nicotinamide adenine dinucleotide phosphate (NADPH) was added to initiate the reaction. After the reaction, the sample was processed and liquid chromatography tandem mass spectrometry (LC-MS/MS) was used to quantitatively detect the […] metabolites produced by the specific substrate, Acetaminophen and 4′-hydroxydiclofenac, 4′-hydroxymephenytoin, Dextrorphan and 1′-hydroxymidazolam, in order to calculate the corresponding half maximal inhibitory concentration (IC50).

[2] = Comparative pharmacokinetics study in rats; type: in vivo, SD male rats; conditions: rat
Experimental: Experimental Example 2: Comparative Pharmacokinetics Study in Rats
SD male rats were used as the test animals in this study. The drug concentrations in plasma of the rats by intravenous or oral administration of test compounds WX017, WX047, WX079, WX088 and reference compound at different time points were quantitatively determined by LC/MS/MS, which were used to evaluate the pharmacokinetic profile of the two test drugs in rats.
A clear solution of the test compound was injected into SD rats via the tail vein (overnight fasting, 7-10 weeks old), and the test compound was orally administered to the SD rats (overnight fasting, 7-10 weeks old). Approximately 200 μL of blood was collected from the jugular vein or tail vein of the animals 0.0833, 0.25, 0.5, 1, 2, 4, 6, 8 and 24 hours after administration, and was placed in an anticoagulant tube containing EDTA-K2. The plasma was collected by centrifugation at 3000 g for 15 minutes at 4° C. The plasma concentration was determined by LC-MS/MS. The pharmacokinetic parameters were calculated by the non-compartment model linear logarithmic trapezoidal method using WinNonlin™ Version 6.3 (Pharsight, Mountain View, Calif.) pharmacokinetic software.

[3] = molecular target: T1, CYP1A2 (Homo sapiens, UniProt P05177); test: Inhibition of human liver microsomal CYP1A2 (phenacetin probe); type: in vitro ADME; conditions: human liver microsomes
T1 construct: from tissue; host or cells: human liver microsomes
T1 sequence (P05177 1-516): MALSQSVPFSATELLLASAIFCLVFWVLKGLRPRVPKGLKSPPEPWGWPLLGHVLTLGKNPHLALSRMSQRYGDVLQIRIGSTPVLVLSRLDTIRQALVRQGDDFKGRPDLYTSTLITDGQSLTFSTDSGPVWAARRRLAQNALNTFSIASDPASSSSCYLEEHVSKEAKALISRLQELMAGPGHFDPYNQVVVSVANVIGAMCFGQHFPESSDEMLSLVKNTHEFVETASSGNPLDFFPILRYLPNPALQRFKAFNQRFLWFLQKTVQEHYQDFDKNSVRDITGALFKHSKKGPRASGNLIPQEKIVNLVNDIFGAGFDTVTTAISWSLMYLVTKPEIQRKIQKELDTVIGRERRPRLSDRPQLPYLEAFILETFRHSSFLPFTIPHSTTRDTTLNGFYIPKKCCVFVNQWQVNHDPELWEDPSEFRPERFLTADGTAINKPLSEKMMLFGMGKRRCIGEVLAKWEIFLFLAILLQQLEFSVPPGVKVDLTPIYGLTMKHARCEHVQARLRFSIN
Experimental: as §1, §2

[4] = male, Sprague-Dawley (SD), plasma, intravenous injection 2 mg/kg

CCCCOCCOc1ccc(-c2ccc(OCC)c(/C=C/C(=O)Nc3ccc([S@+]([O-])Cc4c(C)ncn4CC)cc3)c2)cc1 [WX047]
Risk of inhibiting isoenzymes of human liver microsomal cytochrome P450 (conclusion in words) [1]: no risk on inhibiting five isoenzymes | clearance [2, 4]: 0.52 mL/min/kg | half-life [2, 4]: 3.06 h | bioavailability ([2]; male, Sprague-Dawley (SD), plasma, oral 10 mg/kg vs intravenous 2 mg/kg): 40.4% | Area Under a Curve (0-inf) ([2]; intravenous injection 2 mg/kg): 101.904 µM·h | Area Under a Curve (0-inf/0-last) ([2]; oral 10 mg/kg): 204.785 µM·h | Peak time ([2]; oral 10 mg/kg): 5.0 h | Oral plasma system exposure (AUC0-inf) as multiple of the reference compound ([2]; oral, relative to Cenicriviroc): 6.4 times | Plasma clearance as percent of that of the reference compound ([2]; relative to Cenicriviroc): 33% | IC50 [3]: > 50 µM

— US11155523B2, “Biphenyl compound as CCR2/CCR5 receptor antagonist” (Medshine Discovery Inc., priority 2016, dated 2021)
